Experimental data reported in paper PMC6934184, “Selective DNA-PKcs inhibition extends the therapeutic index of localized radiotherapy and chemotherapy” (The Journal of Clinical Investigation, 2019).

Target: T1, PRKCE (PKC epsilon) (Homo sapiens, UniProt Q02156)
T1 construct: purchased Thermo Fisher Scientific (Life Technologies) SelectScreen
Experiment: SelectScreen Z'LYTE
Format: biochemical
Outline: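 SelectScreen broad panel; activity (Z'LYTE, Adapta) plus binding formats. ATP: Km app for CSF1R Z'LYTE; 10 for CAMK1 Adapta. Readout = % per kinase.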

T1 sequence (Q02156 whole entry): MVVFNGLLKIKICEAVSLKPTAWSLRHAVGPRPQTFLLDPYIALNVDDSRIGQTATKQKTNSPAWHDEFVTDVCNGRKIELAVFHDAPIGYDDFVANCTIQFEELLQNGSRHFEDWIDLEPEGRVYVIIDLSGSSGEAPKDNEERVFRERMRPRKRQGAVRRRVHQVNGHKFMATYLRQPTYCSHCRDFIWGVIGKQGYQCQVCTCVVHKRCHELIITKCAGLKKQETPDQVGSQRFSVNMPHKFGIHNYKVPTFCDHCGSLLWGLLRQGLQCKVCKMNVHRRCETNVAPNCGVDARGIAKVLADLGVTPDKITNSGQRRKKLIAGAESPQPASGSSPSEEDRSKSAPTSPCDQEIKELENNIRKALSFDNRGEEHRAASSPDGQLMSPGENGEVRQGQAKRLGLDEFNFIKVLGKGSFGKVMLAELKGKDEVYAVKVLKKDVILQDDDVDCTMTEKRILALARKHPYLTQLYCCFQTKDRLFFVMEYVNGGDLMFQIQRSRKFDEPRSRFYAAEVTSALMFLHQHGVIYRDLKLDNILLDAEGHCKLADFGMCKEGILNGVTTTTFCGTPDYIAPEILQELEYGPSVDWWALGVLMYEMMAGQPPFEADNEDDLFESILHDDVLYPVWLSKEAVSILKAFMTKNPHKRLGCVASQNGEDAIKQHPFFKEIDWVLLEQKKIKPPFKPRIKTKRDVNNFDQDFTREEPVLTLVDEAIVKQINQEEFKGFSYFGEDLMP

SMILES: CN(C(=O)CN1CCOCC1)c1ccc2sc3c(-c4cccc5c(=O)cc(N6CC7CCC(C6)O7)oc45)cccc3c2c1 [NU5455]
- inhibition at 1 µM: -4.9%
